In patent publication US8809498B2, “Pepstatin A derivatives” (priority 2008, dated 2014):
Starred links: 1 amine or outer side, 2 acyl side, 3 side chain; linkers in the order of their positions; H or OH if unused. Non-standard residues stand in square brackets, D forms with d. Residues, ends and D or L forms follow the SMILES beside them. *: point of attachment. Abu(4,4,4-F3) = N[C@@H](CC(F)(F)F)C(=O)O; Phe(3-F) = N[C@@H](Cc1cccc(F)c1)C(=O)O; Phe(4-F) = N[C@@H](Cc1ccc(F)cc1)C(=O)O; Phe(4-Me) = Cc1ccc(C[C@H](N)C(=O)O)cc1; X1 = CC(F)(F)C[C@H](N[*:1])C(=O)[*:2]; Sta = CC(C)C[C@H](N)[C@@H](O)CC(=O)O; Isovaleryl = CC(C)CC(=O)*; Orn = NCCC[C@H](N)C(=O)O; Dab = NCC[C@H](N)C(=O)O; Abu = CC[C@H](N)C(=O)O

How the values were obtained:
Type in all cases: biochemical
Sap1 of Candida albicans = Sap1 of Candida albicans (Candida albicans, UniProt P0CY27); test: Inhibition of proteolytic activity of Sap1 (resorufin-marked casein, fluorescence); conditions: for effectiveness against Sap1 compared with pepstatin A: versus pepstatin A
Sap1 of Candida albicans, sequence (P0CY27 51-391): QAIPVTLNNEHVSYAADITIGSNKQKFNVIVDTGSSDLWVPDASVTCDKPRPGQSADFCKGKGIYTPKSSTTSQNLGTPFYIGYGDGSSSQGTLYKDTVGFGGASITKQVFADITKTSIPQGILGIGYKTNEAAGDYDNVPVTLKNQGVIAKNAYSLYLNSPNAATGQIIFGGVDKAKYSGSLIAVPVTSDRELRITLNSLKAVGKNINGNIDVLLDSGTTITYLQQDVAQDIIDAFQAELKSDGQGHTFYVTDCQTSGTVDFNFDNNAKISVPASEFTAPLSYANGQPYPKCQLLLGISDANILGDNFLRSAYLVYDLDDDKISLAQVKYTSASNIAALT
Protocol: (§1) For this purpose, that inhibitor concentration was determined in vitro at which the proteolytic activity of the enzyme or its velocity of metabolizing a substrate, respectively, was reduced for 50%.
(§2) The proteolytic activity of the tested Saps was determined at the pH optimum of those Saps. Resorufin-marked casein was used as substrate. Proteolysis of casein can be detected by an increase in fluorescence due to released resorufin (a fluorescence marker) by proteolysis.
(§3) Sap1, Sap3 and Sap6 of Candida albicans were independently dissolved in 2-(N-morpholino)ethanesulfonic acid (MES) having a concentration of 10 mmol/l and a pH of 6.5 resulting in enzyme solutions having a Sap concentration of 100 mmol/l. After one hour incubation at room temperature, 80 μl of a substrate solution comprising resorufin-marked casein in a sodium citrate buffer having a concentration of 500 mmol/l and a pH of 3.5 (in case of Sap3), 4.5 (in case of Sap1) and 5.0 (in case of Sap6) were added to 20 μl of enzyme solution. The resulting Sap concentration was 5 nmol/l. The resulting casein concentration was chosen such that the Saps could work in excess of substrate. Different Sap inhibitors were added, resulting in a final inhibitor concentration of 1 nmol/1, 2 nmol/1, 5 nmol/1, 10 nmol/l, nmol/l or 50 nmol/l in each case. One enzyme-substrate sample was left without addition of inhibitor. All experiments were performed in triplicate.
(§4) The mixture of enzyme and substrate or of enzyme, substrate and inhibitor was incubated at 37° C. under agitation at 300 rpm (rounds per minute) for 60 min in each case. Afterwards, 20 μl of a trichloroacetic acid solution (30%, w/v) were added. The mixture was placed on ice for 5 minutes and centrifuged afterwards for 3 min at 6000 rpm. The supernatant was removed.
(§5) To carry out fluorescence measurements, 100 μl of the supernatant were mixed with 100 μl Tris-HCl (trishydroxymethylaminomethane-HCl) having a concentration of 1 mol/l and a pH of 10.0. The fluorescence of this mixture was measured directly after adding Tris-HCl using an excitation wavelength of 530 nm and an emission wavelength of 590 nm on a CytoFluor 2350 apparatus (Millipore, Bedford, Mass., USA), wherein sensitivity was set to 2 and bandwidth was set to 7.
(§6) The average of three independent fluorescence measurements was calculated. The fluorescence of enzyme without inhibitor (i.e. inhibitor concentration of 0 nmol/l) was set to 100% enzyme activity. The activity of inhibited enzyme was calculated accordingly from the fluorescence of inhibited enzyme with respect to fluorescence of enzyme without inhibitor. Finally, the enzyme activity was plotted against the inhibitor concentration and the IC50 value was determined.

Sap3 of Candida albicans = Sap3 of Candida albicans (Candida albicans, UniProt P0CY29); test: Inhibition of proteolytic activity of Sap3 (resorufin-marked casein, fluorescence)
Sap3 of Candida albicans, sequence (P0CY29 59-398): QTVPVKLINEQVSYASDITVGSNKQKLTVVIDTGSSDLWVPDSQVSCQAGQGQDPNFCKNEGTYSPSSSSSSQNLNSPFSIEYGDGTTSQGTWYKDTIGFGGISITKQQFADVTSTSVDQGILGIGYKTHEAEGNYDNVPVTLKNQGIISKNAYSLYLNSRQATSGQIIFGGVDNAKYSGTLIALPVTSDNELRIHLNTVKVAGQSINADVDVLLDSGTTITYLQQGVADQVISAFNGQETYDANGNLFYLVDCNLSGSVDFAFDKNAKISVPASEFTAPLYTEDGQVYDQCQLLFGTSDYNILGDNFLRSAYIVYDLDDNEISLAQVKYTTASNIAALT
Protocol: as §1, §2, §3, §4, §5, §6

Sap6 of Candida albicans = Sap6 of Candida albicans (Candida albicans, UniProt Q5AC08); test: Inhibition of proteolytic activity of Sap6 (resorufin-marked casein, fluorescence); conditions: for effect on Sap 6: versus pepstatin A
Sap6 of Candida albicans, sequence (Q5AC08 77-418): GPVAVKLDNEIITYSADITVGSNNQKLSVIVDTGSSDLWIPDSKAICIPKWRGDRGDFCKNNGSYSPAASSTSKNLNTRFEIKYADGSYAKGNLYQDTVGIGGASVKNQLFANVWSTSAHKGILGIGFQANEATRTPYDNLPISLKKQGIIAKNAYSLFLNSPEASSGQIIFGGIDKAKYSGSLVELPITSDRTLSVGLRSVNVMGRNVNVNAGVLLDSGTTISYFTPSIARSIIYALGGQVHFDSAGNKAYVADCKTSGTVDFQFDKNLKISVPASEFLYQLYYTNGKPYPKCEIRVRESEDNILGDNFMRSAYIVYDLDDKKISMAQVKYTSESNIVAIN
Protocol: as §1, §2, §3, §4, §5, §6

Sap5 = Sap5 (Candida albicans, UniProt P43094); test: Inhibition of proteolytic activity of Sap5
Sap5, sequence (P43094 77-418): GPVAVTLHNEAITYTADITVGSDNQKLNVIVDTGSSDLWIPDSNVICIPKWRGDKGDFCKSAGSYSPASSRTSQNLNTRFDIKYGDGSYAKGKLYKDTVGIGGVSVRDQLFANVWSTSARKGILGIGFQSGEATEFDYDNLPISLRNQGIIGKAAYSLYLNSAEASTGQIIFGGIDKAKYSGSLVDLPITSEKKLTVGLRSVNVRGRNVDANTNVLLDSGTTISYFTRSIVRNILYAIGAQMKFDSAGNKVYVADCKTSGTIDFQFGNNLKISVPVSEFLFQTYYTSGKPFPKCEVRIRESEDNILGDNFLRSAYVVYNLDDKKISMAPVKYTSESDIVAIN
Protocol: as §1, §2, §4, §5, §6

SMILES	IC50 (Sap1 of Candida albicans) [nM]	IC50 (Sap3 of Candida albicans) [nM]	IC50 (Sap6 of Candida albicans) [nM]	IC50 (Sap5) [nM]	effectiveness against Sap1 compared with pepstatin A (Sap1 of Candida albicans)	effect on Sap 6 (Sap6 of Candida albicans)	specificity for Sap3 (Sap3 of Candida albicans; versus Sap1 and Sap6)	concentration equally effective in inhibiting Sap1, fold less than that of amprenavir (Sap1 of Candida albicans; versus amprenavir) [fold]
CC[C@H](NC(=O)[C@@H](NC(=O)CC(C)C)C(C)C)C(=O)N[C@@H](CC(C)C)[C@@H](O)CC(=O)N[C@@H](C)C(=O)N[C@@H](CC(C)C)[C@@H](O)CC(=O)O [P2(Abu)-pepstatin, (N-Iva-Val)-Abu-Sta-Ala-Sta, reference compound] (Isovaleryl-V[Abu][Sta]A[Sta]-OH)	~50	< 5	~20					
CC(C)CC(=O)N[C@H](C(=O)N[C@@H](CC(C)C)C(=O)N[C@@H](CC(C)C)[C@@H](O)CC(=O)N[C@@H](C)C(=O)N[C@@H](CC(C)C)[C@@H](O)CC(=O)O)C(C)C [P2(Leu)-pepstatin, (N-Iva-Val)-Leu-Sta-Ala-Sta, reference compound] (Isovaleryl-VL[Sta]A[Sta]-OH)	> 500	100	~200					
CC(C)(C)NC(=O)[C@@H]1C[C@@H]2CCCC[C@@H]2CN1C[C@@H](O)[C@H](Cc1ccccc1)NC(=O)[C@H](CC(N)=O)NC(=O)c1ccc2ccccc2n1 [Saquinavir, reference compound]	~50000	~200000	> 312000					
CC(C)CC(=O)N[C@@H](Cc1cccc(F)c1)C(=O)N[C@H](C(=O)N[C@@H](CC(C)C)[C@@H](O)CC(=O)N[C@@H](C)C(=O)N[C@@H](CC(C)C)[C@@H](O)CC(=O)O)C(C)C [P3(m-FPhe)-pepstatin, (N-Iva-mFPhe)-Val-Sta-Ala-Sta] (Isovaleryl-[Phe(3-F)]V[Sta]A[Sta]-OH)	10	~10	10	~10				
COc1ccc(C[C@H](NC(=O)CC(C)C)C(=O)N[C@H](C(=O)N[C@@H](CC(C)C)[C@@H](O)CC(=O)N[C@@H](C)C(=O)N[C@@H](CC(C)C)[C@@H](O)CC(=O)O)C(C)C)cc1 [P3(O—MeTyr)-pepstatin, (N-Iva-OMeTyr)-Val-Sta-Ala-Sta] (Isovaleryl-Y(Me)V[Sta]A[Sta]-OH)	> 500	~5	~10					
CC(C)CC(=O)N[C@@H](CC(C)C)C(=O)N[C@H](C(=O)N[C@@H](CC(C)C)[C@@H](O)CC(=O)N[C@@H](C)C(=O)N[C@@H](CC(C)C)[C@@H](O)CC(=O)O)C(C)C [P3(Leu)-pepstatin, (N-Iva-Leu)-Val-Sta-Ala-Sta, reference compound] (Isovaleryl-LV[Sta]A[Sta]-OH)	> 500	< 5	> 500					
CC(C)CC(=O)N[C@@H](Cc1ccc(O)cc1)C(=O)N[C@H](C(=O)N[C@@H](CC(C)C)[C@@H](O)CC(=O)N[C@@H](C)C(=O)N[C@@H](CC(C)C)[C@@H](O)CC(=O)O)C(C)C [P3(Tyr)-pepstatin, (N-Iva-Tyr)-Val-Sta-Ala-Sta] (Isovaleryl-YV[Sta]A[Sta]-OH)	< 5	< 5	< 5		more effective against Sap1 than pepstatin A itself	increased effects on Sap 6		
CC(C)CC(=O)N[C@@H](Cc1ccc(F)cc1)C(=O)N[C@H](C(=O)N[C@@H](CC(C)C)[C@@H](O)CC(=O)N[C@@H](C)C(=O)N[C@@H](CC(C)C)[C@@H](O)CC(=O)O)C(C)C [P3(p-FPhe)-pepstatin, (N-Iva-pFPhe)-Val-Sta-Ala-Sta] (Isovaleryl-[Phe(4-F)]V[Sta]A[Sta]-OH)	< 5	< 5	~10		more effective against Sap1 than pepstatin A itself			
CC(C)CC(=O)N[C@H](C(=O)N[C@@H](CC(C)(F)F)C(=O)N[C@@H](CC(C)C)[C@@H](O)CC(=O)N[C@@H](C)C(=O)N[C@@H](CC(C)C)[C@@H](O)CC(=O)O)C(C)C [P2(DfpGly)-pepstatin, (N-Iva-Val)-DfpGly-Sta-Ala-Sta] (Isovaleryl-V[X1][Sta]A[Sta]-OH)	~20	~5	~15					
CC(C)CC(=O)N[C@H](C(=O)N[C@H](C(=O)N[C@@H](CC(C)C)[C@@H](O)CC(=O)N[C@@H](CCN)C(=O)N[C@@H](CC(C)C)[C@@H](O)CC(=O)O)C(C)C)C(C)C [P1'(Dab)-pepstatin, (N-Iva-Val)-Val-Sta-Dab-Sta] (Isovaleryl-VV[Sta][Dab][Sta]-OH)	~400	~20	> 500				very high specificity for Sap3	
CC(C)CC(=O)N[C@@H](Cc1ccccc1)C(=O)N[C@H](C(=O)N[C@@H](CC(C)C)[C@@H](O)CC(=O)N[C@@H](C)C(=O)N[C@@H](CC(C)C)[C@@H](O)CC(=O)O)C(C)C [P3(Phe)-pepstatin, (N-Iva-Phe)-Val-Sta-Ala-Sta] (Isovaleryl-FV[Sta]A[Sta]-OH)	~5	< 5	~10		more effective against Sap1 than pepstatin A itself			
CC(C)CC(=O)N[C@H](C(=O)N[C@H](C(=O)N[C@@H](CC(C)C)[C@@H](O)CC(=O)N[C@@H](CCCNC(=N)N)C(=O)N[C@@H](CC(C)C)[C@@H](O)CC(=O)O)C(C)C)C(C)C [P1'(Arg)-pepstatin, (N-Iva-Val)-Val-Sta-Arg-Sta] (Isovaleryl-VV[Sta]R[Sta]-OH)	~10	< 5	< 5			increased effects on Sap 6		
Cc1c(O)cccc1C(=O)N[C@@H](CSc1ccccc1)[C@H](O)CN1C[C@H]2CCCC[C@H]2C[C@H]1C(=O)NC(C)(C)C [Nelfinavir, reference compound]	~250000	> 312000						
CC(C)CC(=O)N[C@H](C(=O)N[C@H](C(=O)N[C@@H](CC(C)C)[C@@H](O)CC(=O)N[C@@H](CCCCN)C(=O)N[C@@H](CC(C)C)[C@@H](O)CC(=O)O)C(C)C)C(C)C [P1'(Lys)-pepstatin, (N-Iva-Val)-Val-Sta-Lys-Sta] (Isovaleryl-VV[Sta]K[Sta]-OH)	< 5	< 5	~7		more effective against Sap1 than pepstatin A itself			1000
CC(C)CC(=O)N[C@H](C(=O)N[C@H](C(=O)N[C@@H](CC(C)C)[C@@H](O)CC(=O)N[C@@H](CCCN)C(=O)N[C@@H](CC(C)C)[C@@H](O)CC(=O)O)C(C)C)C(C)C [P1'(Orn)-pepstatin, (N-Iva-Val)-Val-Sta-Orn-Sta] (Isovaleryl-VV[Sta][Orn][Sta]-OH)	~20	~15	~30					
Cc1ccc(C[C@H](NC(=O)CC(C)C)C(=O)N[C@H](C(=O)N[C@@H](CC(C)C)[C@@H](O)CC(=O)N[C@@H](C)C(=O)N[C@@H](CC(C)C)[C@@H](O)CC(=O)O)C(C)C)cc1 [P3(MePhe)-pepstatin, (N-Iva-pMePhe)-Val-Sta-Ala-Sta] (Isovaleryl-[Phe(4-Me)]V[Sta]A[Sta]-OH)	~10	~5	~20					
CC(C)CC(=O)N[C@H](C(=O)N[C@@H](CC(F)(F)F)C(=O)N[C@@H](CC(C)C)[C@@H](O)CC(=O)N[C@@H](C)C(=O)N[C@@H](CC(C)C)[C@@H](O)CC(=O)O)C(C)C [P2(TfeGly)-pepstatin, (N-Iva-Val)-TfeGly-Sta-Ala-Sta] (Isovaleryl-V[Abu(4,4,4-F3)][Sta]A[Sta]-OH)	~50	< 5	~20					
